In patent US20230233569A1 (Revolution Medicines, Inc., priority 2020, published 2023):

Tests used:
NCI-H358 (K-Ras G12C) = assay: CellTiter-Glo cell viability assay, 5-day treatment; assay type: cell-based; conditions: Homo sapiens, NCI-H358, 120 h, 5-day treatment; read-out: H358 Cell Viability assay data (K-Ras G12C, IC50)
Summary of the method: (§1)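 Luminescence read-out after 5 days of compound exposure, with plates first brought to room temperature for roughly 30 minutes. Values are percent of averaged DMSO wells, fitted by four-parameter logistic regression.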

Capan-1 (K-Ras G12V) = assay: as above; assay type: cell-based; conditions: Homo sapiens, CAPAN-1, 120 h, 5-day treatment; read-out: Capan-1 Cell Viability assay data (K-Ras G12V, IC50)
Summary of the method: as §1

KRAS G13C = KRAS G13C (Homo sapiens, UniProt P01116+P62937, G13C); assay: Disruption of BRAF RBD interaction with Ras (FRET / MOA assay, with Cyclophilin A); assay type: biochemical; conditions: read-out: KRAS G13C FRET data, IC50
Sequence of KRAS G13C (P01116 1-169 isoform P01116-2 G13C): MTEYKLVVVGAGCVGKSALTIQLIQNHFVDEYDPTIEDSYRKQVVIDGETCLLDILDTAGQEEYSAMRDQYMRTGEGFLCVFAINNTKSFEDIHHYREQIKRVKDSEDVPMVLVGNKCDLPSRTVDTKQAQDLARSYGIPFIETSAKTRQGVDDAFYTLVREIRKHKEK
Sequence of KRAS G13C (P62937 whole entry): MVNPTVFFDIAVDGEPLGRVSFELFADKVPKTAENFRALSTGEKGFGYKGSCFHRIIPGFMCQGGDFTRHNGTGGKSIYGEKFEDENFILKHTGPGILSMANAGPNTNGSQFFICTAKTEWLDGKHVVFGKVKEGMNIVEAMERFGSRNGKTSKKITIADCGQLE
Summary of the method: (§2)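 Biochemical TR-FRET disruption assay: nucleotide-loaded K-Ras with Cyclophilin A and a BRAF RBD construct, compound titrated over 10 points from 30 μM (final).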

KRAS G12D = KRAS G12D (Homo sapiens, UniProt P01116+P62937, G12D); assay: as above; assay type: biochemical; conditions: read-out: KRAS G12D FRET data, IC50
Sequence of KRAS G12D (P01116 1-169 isoform P01116-2 G12D limits assumed): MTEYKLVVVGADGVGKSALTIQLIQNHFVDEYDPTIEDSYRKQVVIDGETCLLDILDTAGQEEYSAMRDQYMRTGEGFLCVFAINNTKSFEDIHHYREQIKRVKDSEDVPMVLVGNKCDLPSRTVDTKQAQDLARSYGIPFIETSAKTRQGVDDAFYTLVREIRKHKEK
Sequence of KRAS G12D (P62937 whole entry): as the sequence (P62937 whole entry) above
Summary of the method: as §2

KRAS G12V = KRAS G12V (Homo sapiens, UniProt P01116+P62937, G12V); assay: as above; assay type: biochemical; conditions: KRAS G12V; read-out: KRAS G12V FRET data IC50
Sequence of KRAS G12V (P01116 1-169 isoform P01116-2 G12V limits assumed): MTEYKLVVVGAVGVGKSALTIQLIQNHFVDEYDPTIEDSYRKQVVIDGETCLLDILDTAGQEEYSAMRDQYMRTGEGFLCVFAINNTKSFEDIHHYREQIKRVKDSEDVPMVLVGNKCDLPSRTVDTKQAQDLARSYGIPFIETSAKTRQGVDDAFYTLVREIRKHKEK
Sequence of KRAS G12V (P62937 whole entry): as the sequence (P62937 whole entry) above
Summary of the method: as §2

NRAS G12C = NRAS G12C (Homo sapiens, UniProt P01111+P62937, G12C); assay: as above; assay type: biochemical; conditions: NRAS G12C; read-out: NRAS G12C FRET data IC50
Sequence of NRAS G12C (P01111 whole entry G12C): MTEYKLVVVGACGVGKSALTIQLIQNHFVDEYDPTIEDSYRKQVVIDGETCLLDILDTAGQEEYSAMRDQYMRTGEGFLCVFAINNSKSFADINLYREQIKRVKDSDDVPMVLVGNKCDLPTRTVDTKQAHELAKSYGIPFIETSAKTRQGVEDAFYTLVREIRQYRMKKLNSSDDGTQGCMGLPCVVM
Sequence of NRAS G12C (P62937 whole entry): as the sequence (P62937 whole entry) above

KRAS G12S = KRAS G12S (Homo sapiens, UniProt P01116+P62937, G12S); assay: as above; assay type: biochemical; conditions: read-out: KRAS G12S FRET data, IC50
Sequence of KRAS G12S (P01116 1-169 isoform P01116-2 G12S limits assumed): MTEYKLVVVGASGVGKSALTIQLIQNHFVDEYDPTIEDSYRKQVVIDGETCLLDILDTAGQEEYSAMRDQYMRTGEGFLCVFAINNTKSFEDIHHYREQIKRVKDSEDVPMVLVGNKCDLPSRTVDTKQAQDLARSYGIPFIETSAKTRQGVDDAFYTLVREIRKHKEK
Sequence of KRAS G12S (P62937 whole entry): as the sequence (P62937 whole entry) above
Summary of the method: as §2

KRAS WT = KRAS WT (Homo sapiens, UniProt P01116+P62937); assay: as above; assay type: biochemical; conditions: KRAS WT; read-out: KRAS WT FRET data IC50
Sequence of KRAS WT (P01116 1-169 isoform P01116-2 limits assumed): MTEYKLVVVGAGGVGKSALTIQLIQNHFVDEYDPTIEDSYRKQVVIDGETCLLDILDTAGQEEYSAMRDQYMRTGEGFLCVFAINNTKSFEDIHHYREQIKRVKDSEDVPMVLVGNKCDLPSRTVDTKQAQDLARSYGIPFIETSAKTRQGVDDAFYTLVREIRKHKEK
Sequence of KRAS WT (P62937 whole entry): as the sequence (P62937 whole entry) above
Summary of the method: as §2

KRAS G13D = KRAS G13D (Homo sapiens, UniProt P01116+P62937, G13D); assay: as above; assay type: biochemical; conditions: KRAS G13D; read-out: KRAS G13D FRET data IC50
Sequence of KRAS G13D (P01116 1-169 isoform P01116-2 G13D limits assumed): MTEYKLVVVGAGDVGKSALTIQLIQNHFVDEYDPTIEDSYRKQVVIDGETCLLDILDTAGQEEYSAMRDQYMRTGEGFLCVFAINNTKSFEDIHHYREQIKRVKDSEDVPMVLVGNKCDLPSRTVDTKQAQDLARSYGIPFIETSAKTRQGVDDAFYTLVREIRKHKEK
Sequence of KRAS G13D (P62937 whole entry): as the sequence (P62937 whole entry) above
Summary of the method: as §2

KRAS G12C = KRAS G12C (Homo sapiens, UniProt P01116+P62937, G12C); assay: as above; assay type: biochemical; conditions: read-out: KRAS G12C FRET data, IC50
Sequence of KRAS G12C (P01116 1-169 isoform P01116-2 G12C): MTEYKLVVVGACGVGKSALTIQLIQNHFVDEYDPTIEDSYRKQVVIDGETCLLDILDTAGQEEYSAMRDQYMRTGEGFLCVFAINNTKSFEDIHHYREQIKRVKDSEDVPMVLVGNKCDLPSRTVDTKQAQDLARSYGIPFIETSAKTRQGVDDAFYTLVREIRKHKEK
Sequence of KRAS G12C (P62937 whole entry): as the sequence (P62937 whole entry) above
Summary of the method: as §2

NRAS Q61K = NRAS Q61K (Homo sapiens, UniProt P01111+P62937, Q61K); assay: as above; assay type: biochemical; conditions: NRAS Q61K; read-out: NRAS Q61K FRET data IC50
Sequence of NRAS Q61K (P01111 whole entry Q61K): as the sequence (P01111 whole entry G12C) above, with C12G, Q61K counted along it
Sequence of NRAS Q61K (P62937 whole entry): as the sequence (P62937 whole entry) above
Summary of the method: (§3)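 TR-FRET in 25 mM HEPES pH 7.3, 100 mM NaCl, 5 mM MgCl2, 0.1% BSA: 25 μM Cyclophilin A, 12.5 nM His6-Ras-GMPPNP, 50 nM GST-BRAF RBD with compound (10-point 3-fold series from 30 μM), 3 h at 25° C. Anti-His Eu/anti-GST APC added, 1.5 h more; IC50 from decreased FRET ratio versus DMSO.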

NRAS Q61R = NRAS Q61R (Homo sapiens, UniProt P01111+P62937, Q61R); assay: as above; assay type: biochemical; conditions: NRAS Q61R; read-out: NRAS Q61R FRET data IC50
Sequence of NRAS Q61R (P01111 whole entry Q61R): as the sequence (P01111 whole entry G12C) above, with C12G, Q61R counted along it
Sequence of NRAS Q61R (P62937 whole entry): as the sequence (P62937 whole entry) above
Summary of the method: as §3

KRAS Q61H = KRAS Q61H (Homo sapiens, UniProt P01116+P62937, Q61H); assay: as above; assay type: biochemical; conditions: KRAS Q61H; read-out: KRAS Q61H FRET data IC50
Sequence of KRAS Q61H (P01116 1-169 isoform P01116-2 Q61H limits assumed): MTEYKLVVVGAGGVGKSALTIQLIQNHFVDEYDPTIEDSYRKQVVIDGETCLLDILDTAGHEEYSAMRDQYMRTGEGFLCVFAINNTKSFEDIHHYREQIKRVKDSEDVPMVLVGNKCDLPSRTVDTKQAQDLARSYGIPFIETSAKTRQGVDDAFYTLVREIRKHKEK
Sequence of KRAS Q61H (P62937 whole entry): as the sequence (P62937 whole entry) above
Summary of the method: as §3

NRAS WT = NRAS WT (Homo sapiens, UniProt P01111+P62937); assay: as above; assay type: biochemical; conditions: NRAS WT; read-out: NRAS WT FRET data IC50
Sequence of NRAS WT (P01111 whole entry): as the sequence (P01111 whole entry G12C) above, with C12G counted along it
Sequence of NRAS WT (P62937 whole entry): as the sequence (P62937 whole entry) above
Summary of the method: as §3

Compound	IC50 (NCI-H358 (K-Ras G12C)) [nM]	IC50 (Capan-1 (K-Ras G12V)) [nM]	IC50 (KRAS G13C) [nM]	IC50 (KRAS G12D) [nM]	IC50 (KRAS G12V) [nM]	IC50 (NRAS G12C) [nM]	IC50 (KRAS G12S) [nM]	IC50 (KRAS WT) [nM]	IC50 (KRAS G13D) [nM]	IC50 (KRAS G12C) [nM]	IC50 (NRAS Q61K) [nM]	IC50 (NRAS Q61R) [nM]	IC50 (KRAS Q61H) [nM]	IC50 (NRAS WT) [nM]
CCn1c(-c2cccnc2[C@H](C)OC)c2c3cc(ccc31)-c1csc(n1)C[C@H](NC(=O)[C@H](C(C)C)N(C)C(=O)N1CC([C@@H](C)NC)C1)C(=O)N1CCC[C@H](N1)C(=O)OCC(C)(C)C2 (atropisomer, axis not shown) [Example A488]	10 to 100	100 to 1000	100 to 1000	100 to 1000	100 to 1000	10 to 100	100 to 1000	100 to 1000	100 to 1000	10 to 100	10 to 100	100 to 1000	10 to 100	100 to 1000
CCn1c(-c2cccnc2[C@H](C)OC)c2c3cc(ccc31)-c1csc(n1)[C@@H](O)[C@H](NC(=O)[C@H](C(C)C)N(C)C(=O)N1CC(N(C)C)C1)C(=O)N1CCC[C@H](N1)C(=O)OCC(C)(C)C2 (atropisomer, axis not shown) [Example A489]	10 to 100	100 to 1000	100 to 1000	1000 to 10000	100 to 1000	10 to 100	100 to 1000	100 to 1000	100 to 1000	10 to 100	10 to 100	100 to 1000	100 to 1000	100 to 1000
CCn1c(-c2cccnc2[C@H](C)OC)c2c3cc(ccc31)-c1csc(n1)C[C@H](NC(=O)[C@H](C(C)C)N(C)C(=O)N1CCC3(CN(C)C3)C1)C(=O)N1CCC[C@H](N1)C(=O)OCC(C)(C)C2 (atropisomer, axis not shown) [Example A503]	10 to 100	10 to 100	100 to 1000	100 to 1000	100 to 1000	10 to 100	10 to 100	10 to 100	100 to 1000	10 to 100	10 to 100	10 to 100	10 to 100	10 to 100
CCn1c(-c2cc(C3CCN(C)CC3)cnc2[C@H](C)OC)c2c3cc(ccc31)-c1csc(n1)C[C@H](NC(=O)[C@H](C(C)C)N(C)C(=O)N1CCOCC1)C(=O)N1CCC[C@H](N1)C(=O)OCC(C)(C)C2 (atropisomer, axis not shown) [Example A505]	< 10	< 10	100 to 1000	100 to 1000	100 to 1000	10 to 100	100 to 1000	10 to 100	100 to 1000	10 to 100	10 to 100	10 to 100	10 to 100	10 to 100
CCn1c(-c2cccnc2[C@H](C)OC)c2c3cc(ccc31)-c1csc(n1)C[C@H](NC(=O)[C@H](C(C)C)N(C)C(=O)N1CC3(CC(O)C3)C1)C(=O)N1CCC[C@H](N1)C(=O)OCC(C)(C)C2 (atropisomer, axis not shown) [Example A510]	10 to 100	10 to 100	100 to 1000	1000 to 10000	100 to 1000	10 to 100	100 to 1000	100 to 1000	100 to 1000	10 to 100	10 to 100	100 to 1000	10 to 100	100 to 1000
CCn1c(-c2cccnc2[C@H](C)OC)c2c3cc(ccc31)-c1csc(n1)C[C@H](NC(=O)[C@H](C(C)C)N(C)C(=O)N1CCCC13CCOCC3)C(=O)N1CCC[C@H](N1)C(=O)OCC(C)(C)C2 (atropisomer, axis not shown) [Example A520]	10 to 100	10 to 100	100 to 1000	100 to 1000	100 to 1000	100 to 1000	100 to 1000	100 to 1000	100 to 1000	100 to 1000	10 to 100	10 to 100	10 to 100	100 to 1000
CCn1c(-c2cccnc2[C@H](C)OC)c2c3cc(ccc31)-c1csc(n1)C[C@H](NC(=O)[C@H](C(C)C)N(C)C(=O)N1CC3(CCCO3)C1)C(=O)N1CCC[C@H](N1)C(=O)OCC(C)(C)C2 (atropisomer, axis not shown) [Example A522]	10 to 100	100 to 1000	100 to 1000	1000 to 10000	100 to 1000	100 to 1000	100 to 1000	100 to 1000	1000 to 10000	100 to 1000	10 to 100	100 to 1000	100 to 1000	100 to 1000
CCn1c(-c2cccnc2[C@H](C)OC)c2c3cc(ccc31)-c1csc(n1)C[C@H](NC(=O)[C@H](C(C)C)N(C)C(=O)N1CC3(CC3)C1)C(=O)N1CCC[C@H](N1)C(=O)OCC(C)(C)C2 (atropisomer, axis not shown) [Example A523]	10 to 100	10 to 100	100 to 1000	100 to 1000	100 to 1000	10 to 100	100 to 1000	100 to 1000	100 to 1000	10 to 100	10 to 100	100 to 1000	10 to 100	100 to 1000
CCn1c(-c2cc(N3CCN(C)CC3)cnc2[C@H](C)OC)c2c3cc(ccc31)-c1csc(n1)C[C@H](NC(=O)[C@H](C1CCCC1)N(C)C(=O)N(C)C)C(=O)N1CCC[C@H](N1)C(=O)OCC(C)(C)C2 (atropisomer, axis not shown) [Example A526]	< 10	< 10	10 to 100	100 to 1000	10 to 100	10 to 100	10 to 100	10 to 100	100 to 1000	10 to 100	10 to 100	10 to 100	10 to 100	10 to 100
